{"source": "patent US11980189B2", "about": "“Agricultural formulations, uses thereof and processes for preparation thereof” (Valent U.S.A. LLC, priority 2020, dated 2024)", "origin": "cited, not measured here", "data": [{"smiles": "COCC(=O)N(c1c(C)cccc1C)C(C)C(=O)OC", "note": "(stereo not shown) [metalaxyl, Metalaxyl]", "values": [{"measurement": "partial water solubility", "result": "8,400 parts per million"}]}]}
